The structures appear in SMILES notation. *1 amine or outer side, *2 acyl side, *3 side chain or, on linkers, in order; H or OH if unused. Where a SMILES comes first, the peptide text is derived from it. CO = O=C([*:1])[*:2]

In the test the target is T1, IXOSP (Ixodes scapularis salivary serine protease) (Ixodes scapularis, UniProt Q4PMM2).
T1 sequence (Q4PMM2 51-273): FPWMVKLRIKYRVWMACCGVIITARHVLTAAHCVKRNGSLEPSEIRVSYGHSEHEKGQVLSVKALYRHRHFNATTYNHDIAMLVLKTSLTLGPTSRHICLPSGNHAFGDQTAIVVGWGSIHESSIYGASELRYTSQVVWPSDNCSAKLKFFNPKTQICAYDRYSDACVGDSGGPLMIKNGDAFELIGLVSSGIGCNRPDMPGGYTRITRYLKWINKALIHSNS
The test is described as follows: amidolytic assay, pNA release at […] nm. Type of test: biochemical. As to conditions: read-out: Inhibition of activity (% ± SD).

Broadly, the inhibition is how much of the control response was suppressed. For `CC(C)[C@H](NC(=O)[C@H](CCCNC(=N)N)NC(=O)N[C@@H](Cc1ccccc1)C(=O)O)C(=O)N[C@H](C=O)CCCNC(=N)N` [Antipain] ({Phe-CO}-Arg-Val-Arg-aldehyde), the inhibition at 30 µM turned out to be 55 ± 4%.

The values above are taken from publication PMC3877196 (Toxicon : official journal of the International Society on …, 2013).
